Assay results reported in patent US10806790B1, “Pain therapy cream with deep tissue delivery system” (priority 2013, dated 2020).

Tests used:
[1] = test system: symptoms of primary osteoarthritis (OA) of the knee; assay: 12-week randomized, double-blind, double-dummy, parallel-group comparative study; WOMAC osteoarthritis index (VAS) efficacy; type: in vivo, patients (men and nonpregnant women)
Protocol: (§1) The purpose of this study was to compare the safety and efficacy of a topical cream (CellMedics®) containing 0.075% w/w capsaicin and 5% w/w Harpagophytum extract vs. oral diclofenac 50 mg tablets over a 12-week treatment course in relieving the symptoms of primary osteoarthritis (OA) of the knee, in a randomized, double-blind, double-dummy, parallel-group study. Eligible patients included men and nonpregnant women between the ages of 45-75 with symptomatic OA of the knee of at least three months duration. All patients had knee OA as defined by the American College of Rheumatology global functional class I, II, or III. […] Concomitant use of other analgesic medications was prohibited during the study. The protocol was a 12-week, randomized, double-blind, double-dummy, parallel-group comparative study. Patients were assessed at the initial screening visit and those who met the entry criteria discontinued NSAID treatment for a washout period of 3-10 days before the baseline visit. Following the screening and washout periods, each eligible patient attending the baseline visit was assigned a numbered study kit at the clinic. Study kits contained one of 2 randomly assigned treatments: (1) vehicle cream (CellMedics®) containing 0.075% w/w capsaicin and 5% w/w Harpagophytum extract (topical Harpagophytum) plus oral placebo tablet; or (2) diclofenac 50 mg tablet (oral diclofenac) plus a topical placebo cream (vehicle cream with no actives). Patients were instructed to apply a single 3 g measured dose of cream (150 mg of Harpagophytum and 2.25 mg of capsaicin in the active cream) from a metered pump dispenser around the affected knee and take a study tablet orally, 3 times daily for 12 weeks. […] The WOMAC osteoarthritis index, version 3.1 visual analog scale (VAS) was used to assess response to treatment at baseline and after week 12. Patients answered the WOMAC subscales of pain, stiffness, and physical function using a 48 hour recall period. For WOMAC, the VA scales were (best) 0-100 (worst). Safety analyses were conducted on all patients randomized into the trial. At week 12 visits, adverse events (AE) were recorded. The differences between baseline and week 12 were used to analyze changes in WOMAC scores. Statistical significance was assumed at p<0.05. The effect size was calculated by dividing the mean change from baseline with the standard deviation at baseline. Percent improvement was calculated by dividing week 12 change scores by baseline scores.

[2] = test system: patients with primary osteoarthritis (OA) of the knee; assay: Same 12-week study; safety analysis, incidence of drug-related adverse events
Protocol: as §1

[3] = mean change from baseline divided by the standard deviation at baseline, week 12
[4] = mean, WOMAC VA scale (best) 0-100 (worst), 12 weeks, 3 times daily, n = 36
[5] = week 12 change score divided by baseline score
[6] = both, human, in vivo, po, 12 weeks

In the case of `O=C(O)Cc1ccccc1Nc1c(Cl)cccc1Cl` [Oral Diclofenac, diclofenac], the “WOMAC Pain, Effect size” value [1, 3] is reported as 1.04, the “WOMAC Physical Function, Effect size” value [1, 3] is reported as 0.99 and the “WOMAC Stiffness, Effect size” value [1, 3] is reported as 0.90. The “WOMAC Pain, Baseline - week 12 change score” value [1, 4] was −22.87, the “WOMAC Physical Function, Baseline - week 12 change score” value [1, 4] was −21.87 and the “WOMAC Stiffness, Baseline - week 12 change score” value [1, 4] was −21.65. The “WOMAC Pain, % Improvement” value [1, 5] was 48.77%, the “WOMAC Physical function, % Improvement” value [1, 5] was 45.91% and the “WOMAC Stiffness, % Improvement” value [1, 5] was 44.86%. For the same compound, the “Erythema (application site adverse event), number of patients” value ([2]; 12 weeks, n = 36, oral diclofenac group used placebo cream) was “One”, the “severity of dry skin at application site” value ([2]; all cases) was “mild and transient” and the “Abdominal pain (GI adverse event), number of patients” value ([2]; both, human, in vivo, 12 weeks) was 8. For the same compound, the “Constipation (GI adverse event), incidence” value ([2]; both, human, in vivo, 12 weeks) was “(8.3%)”, the “Constipation (GI adverse event), number of patients” value ([2]; both, human, in vivo, 12 weeks) was 3 and the “Diarrhea (GI adverse event), incidence” value ([2]; both, human, in vivo, 12 weeks) was “(16.7%)”. For the same compound, the “Diarrhea (GI adverse event), number of patients” value ([2]; both, human, in vivo, 12 weeks) was 6, the “Dyspepsia (GI adverse event), incidence” value ([2]; both, human, in vivo, 12 weeks) was “(25.0%)” and the “Dyspepsia (GI adverse event), number of patients” value ([2]; both, human, in vivo, 12 weeks) was 9. For the same compound, the “Edema (other adverse event), number of patients” value ([2]; both, human, in vivo, 12 weeks) was 3, the “Flatulence (GI adverse event), incidence” value ([2]; both, human, in vivo, 12 weeks) was “(16.7%)” and the “Flatulence (GI adverse event), number of patients” value ([2]; both, human, in vivo, 12 weeks) was 6. The “Headache (other adverse event), number of patients” value ([2]; both, human, in vivo, 12 weeks) was 2, the “Nausea (GI adverse event), incidence” value ([2]; both, human, in vivo, 12 weeks) was “(11.1%)” and the “Nausea (GI adverse event), number of patients” value ([2]; both, human, in vivo, 12 weeks) was 4. The “time to resolution of mild redness (erythema)” value ([2]; both, human, in vivo, 12 weeks) was at most 24 h, the “Blisters (application site adverse event), incidence” value [2, 6] was “(0.0%)” and the “Blisters (application site adverse event), number of patients” value [2, 6] was 0. For the same compound, the “Dry Skin (application site adverse event), number of patients” value [2, 6] was 1, the “Erythema (application site adverse event), number of patients” value [2, 6] was 1 and the “Pruritis (application site adverse event), incidence” value [2, 6] was “(0.0%)”. For the same compound, the “Pruritis (application site adverse event), number of patients” value [2, 6] was 0.
